PubChem BioAssay AID256 (DTP/NCI, 2004)
Values joined by “and” are separate entries in the source; they are usually repeats but may differ in a detail not shown here. Equal entries are not always repeated. Toxic doses and inconclusive results are not listed.

Test system: CD2F1 mice, L1210 leukemia ip, survival T/C
Experiment: NCI In Vivo Anticancer Drug Screen. Data for tumor model L1210 Leukemia (intraperitoneal) in CD2F1 (CDF1) mice
Details: higher = longer survival
How it was run: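 Implant tumor; dose compound or vehicle; measure endpoint in both groups; report treated divided by control.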

[1] = endpoint: mean survival time, dose: 50.0 mg/kg/injection, schedule: Q01DX009 (ip), vehicle: Klucel (hydroxypropylcellulose) (HPC)
[2] = endpoint: mean survival time, dose: 100.0 mg/kg/injection, schedule: Q01DX009 (ip), vehicle: Klucel (hydroxypropylcellulose) (HPC)
[3] = endpoint: mean survival time, dose: 200.0 mg/kg/injection, schedule: Q01DX009 (ip), vehicle: Klucel (hydroxypropylcellulose) (HPC)
[4] = endpoint: mean survival time, dose: 100.0 mg/kg/injection, schedule: Q04DX003 (ip), vehicle: saline with Tween-80
[5] = endpoint: mean survival time, dose: 200.0 mg/kg/injection, schedule: Q04DX003 (ip), vehicle: saline with Tween-80
[6] = endpoint: mean survival time, dose: 400.0 mg/kg/injection, schedule: Q04DX003 (ip), vehicle: saline with Tween-80
[7] = endpoint: mean survival time, dose: 100.0 mg/kg/injection, schedule: Q01DX009 (ip), vehicle: saline with Tween-80

CC1=CCc2c(c(NS(=O)(=O)c3ccccc3)c3ccccc3c2NS(=O)(=O)c2ccccc2)C1
T/C (endpoint: mean survival time, dose: 37.5 mg/kg/injection, schedule: Q01DX001 (ip), vehicle: saline sonified): 95 % of control | T/C (endpoint: mean survival time, dose: 75.0 mg/kg/injection, schedule: Q01DX001 (ip), vehicle: saline sonified): 96 % of control | T/C (endpoint: mean survival time, dose: 150.0 mg/kg/injection, schedule: Q01DX001 (ip), vehicle: saline sonified): 89 % of control

Cc1ccc(S(=O)(=O)OCC2OCOC(C(O)CO)C2O)cc1 (stereo not given)
T/C [1]: 101 % of control | T/C [2]: 97 % of control | T/C [3]: 97 % of control

O=C1NCCCS1(=O)=O
T/C (endpoint: mean survival time, dose: 75.0 mg/kg/injection, schedule: Q01DX001 (ip), vehicle: saline): 108 % of control

COc1ccc(C(O)(c2ccccc2)C(O)c2ccccc2)cc1 (stereo not given)
T/C (endpoint: mean survival time, dose: 12.5 mg/kg/injection, schedule: Q04DX002 (ip), vehicle: saline with Tween-80): 93 % of control | T/C (endpoint: mean survival time, dose: 25.0 mg/kg/injection, schedule: Q04DX002 (ip), vehicle: saline with Tween-80): 86 % of control | T/C (endpoint: mean survival time, dose: 50.0 mg/kg/injection, schedule: Q04DX002 (ip), vehicle: saline with Tween-80): 86 % of control | T/C [4]: 93 % of control | T/C [5]: 87 % of control | T/C [6]: 94 % of control and 89 % of control

Nc1ccn([C@@H](C=O)O[C@@H](C=O)CO)c(=O)n1
T/C (endpoint: mean survival time, dose: 6.25 mg/kg/injection, schedule: Q01DX009 (ip), vehicle: saline): 105 % of control | T/C (endpoint: mean survival time, dose: 12.5 mg/kg/injection, schedule: Q01DX009 (ip), vehicle: saline): 114 % of control and 108 % of control | T/C (endpoint: mean survival time, dose: 25.0 mg/kg/injection, schedule: Q01DX009 (ip), vehicle: saline): 115 % of control and 117 % of control | T/C (endpoint: mean survival time, dose: 50.0 mg/kg/injection, schedule: Q01DX009 (ip), vehicle: saline): 121 % of control | T/C (endpoint: mean survival time, dose: 70.0 mg/kg/injection, schedule: Q01DX001 (ip), vehicle: saline): 114 % of control | T/C (endpoint: mean survival time, dose: 100.0 mg/kg/injection, schedule: Q01DX009 (ip), vehicle: saline): 155 % of control and 162 % of control | T/C (endpoint: mean survival time, dose: 140.0 mg/kg/injection, schedule: Q01DX001 (ip), vehicle: saline): 124 % of control | T/C (endpoint: mean survival time, dose: 200.0 mg/kg/injection, schedule: Q01DX009 (ip), vehicle: saline): 211 % of control

Cc1ccc(S(=O)(=O)N2CCC(=O)c3ccccc32)cc1
T/C [7]: 95 % of control | T/C [4]: 101 % of control | T/C (endpoint: mean survival time, dose: 200.0 mg/kg/injection, schedule: Q01DX009 (ip), vehicle: saline with Tween-80): 97 % of control | T/C [5]: 98 % of control | T/C (endpoint: mean survival time, dose: 400.0 mg/kg/injection, schedule: Q01DX009 (ip), vehicle: saline with Tween-80): 95 % of control | T/C [6]: 103 % of control

CC(C)([NH-])C[NH-].O=C(O)CC(=O)O.[Pt+2]
T/C (endpoint: median survival time, dose: 20.0 mg/kg/injection, schedule: Q04DX003 (ip), vehicle: distilled water + Tween-80): 104 % of control

C=CCOCCC#N
T/C [7]: 95 % of control

CN(C)c1ccc(N=Nc2ccc(C(=O)Cl)cc2)cc1
T/C [1]: 98 % of control | T/C [2]: 91 % of control | T/C [3]: 94 % of control

S=C([S-])N1CCCCC1.S=C([S-])N1CCCCC1.[Zn]
T/C (endpoint: mean survival time, dose: 18.8 mg/kg/injection, schedule: Q01DX009 (ip), vehicle: saline): 93 % of control | T/C (endpoint: mean survival time, dose: 37.5 mg/kg/injection, schedule: Q01DX009 (ip), vehicle: saline): 90 % of control

CC1=C/C(O)CC(=O)Cc2nc(co2)C(=O)N2CCC=C2C(=O)OC(C(C)C)C(C)/C=C\C(=O)NC/C=C\1 (stereo not given)
T/C (endpoint: mean survival time, dose: 1.0 micrograms/kg/injection, schedule: Q01DX009 (ip), vehicle: Klucel (hydroxypropylcellulose) (HPC)): 98 % of control | T/C (endpoint: mean survival time, dose: 2.0 micrograms/kg/injection, schedule: Q01DX009 (ip), vehicle: Klucel (hydroxypropylcellulose) (HPC)): 101 % of control | T/C (endpoint: mean survival time, dose: 4.0 micrograms/kg/injection, schedule: Q01DX009 (ip), vehicle: Klucel (hydroxypropylcellulose) (HPC)): 97 % of control | T/C (endpoint: mean survival time, dose: 8.0 micrograms/kg/injection, schedule: Q01DX009 (ip), vehicle: Klucel (hydroxypropylcellulose) (HPC)): 92 % of control | T/C (endpoint: median survival time, dose: 25.0 mg/kg/injection, schedule: Q01DX009 (ip), vehicle: Klucel (hydroxypropylcellulose) (HPC)): 98 % of control | T/C (endpoint: median survival time, dose: 50.0 mg/kg/injection, schedule: Q01DX009 (ip), vehicle: Klucel (hydroxypropylcellulose) (HPC)): 106 % of control | T/C (endpoint: median survival time, dose: 100.0 mg/kg/injection, schedule: Q01DX009 (ip), vehicle: Klucel (hydroxypropylcellulose) (HPC)): 105 % of control | T/C (endpoint: median survival time, dose: 200.0 mg/kg/injection, schedule: Q01DX009 (ip), vehicle: Klucel (hydroxypropylcellulose) (HPC)): 104 % of control

Cc1cccc(NC(=O)COc2ccc(Cl)cc2C)c1
T/C (endpoint: mean survival time, dose: 100.0 mg/kg/injection, schedule: Q04DX002 (ip), vehicle: saline with Tween-80): 110 % of control | T/C (endpoint: mean survival time, dose: 200.0 mg/kg/injection, schedule: Q04DX002 (ip), vehicle: saline with Tween-80): 94 % of control | T/C (endpoint: mean survival time, dose: 400.0 mg/kg/injection, schedule: Q04DX002 (ip), vehicle: saline with Tween-80): 98 % of control
